Assay results reported in patent publication US5192786A, “Substituted biphenylalkoxyamines” (Ortho Pharmaceutical Corporation, priority 1990, dated 1993).
≈ marks a conversion by molar mass, not a printed value. Structures can show the parent of a compound that is named as a salt. Where two headings read alike, the source gives them in different places.

What was measured:
[1] = test system: histamine stimulated parietal cell; assay: Isolated parietal cell assay, inhibition of 14C-aminopyrine accumulation, histamine stimulated; type: cell-based, rabbit; details: Oryctolagus cuniculus, 20 min, read-out: Isolated Parietal Cells IC50 vs his
Experimental: (§1) The isolated parietal cell assay was conducted using the procedures of Batzri, S. et al., Biochemica et Biophysica Acta 508, 328 (1978) and Soll, A.H. Am. J. Physiol. 238, G366 (1980). Basically, parietal cells were isolated from the fundic mucosa of rabbit stomachs by a four-stage collagenase digestion process. The supernatant fractions from the last two stages of this process contain the individual parietal cells. This cell suspension was centrifuged and reconstituted in a modified Hank's buffer to contain 1-2×10^6 cells/ml. […] This accumulation was stimulated by histamine and was blocked by H2 antagonists. The cells were incubated with 0.4-0.5×10^6 cpm ^14 C-AP, with various concentrations of histamine as a stimulant, 1×10^-5 M isobutylmethylxanthine, and the test compound added in a 20 μl volume of buffer or DMSO. The flasks were incubated in a shaking water bath at 37° C. for 20 minutes. Two aliquots were then taken from each flask and cell pellets were collected by centrifugation. The pellets were solubilized with Protosol (New England Nuclear) and radioactivity determined by liquid scintillation spectrometry. Data are presented as the IC50 vs hist, the concentration of compound required to inhibit ^14 C-AP accumulation in the histamine stimulated parietal cell by 50%.

[2] = test system: cAMP stimulated parietal cell; assay: Isolated parietal cell assay, inhibition of 14C-aminopyrine accumulation, dibutyryl cAMP stimulated; type: cell-based, rabbit; details: Oryctolagus cuniculus, 20 min, read-out: Isolated Parietal Cells IC50 vs cAMP
Experimental: as §1
When dibutyryl cAMP was used to stimulate the cells instead of histamine, a similar inhibition of ^14 C-AP accumulation was measured and the data are presented as the IC50 vs cAMP, the concentration of compound required to inhibit ^14 C-AP accumulation in the cAMP stimulated parietal cell by 50%.

Candida albicans = assay: In vitro antimicrobial activity, minimal inhibitory concentration (agar dilution), Candida albicans; type: cell-based, Candida albicans ATC 10231; details: read-out: Minimal inhibitory concentration, Candida albicans
Experimental: (§2) A 0.5 mg/ml stock solution of each Example compound was prepared in an appropriate solvent. From this stock, dilutions were prepared in solvent, and 0.2 ml aliquots of the stock and dilutions were added to tubes containing 19.8 ml of Mueller Hinton agar (46°-50° C.). The mixtures were poured into 100 by 15 mm petri dishes and allowed to solidify.
(§3) The test organisms (Candida albicans ATC 10231 and Trichophyton mentagrophytes ATC 22839) were diluted from frozen stock cultures. Inocula were diluted with sterile solution containing 0.1% peptone in water to contain approximately 2×10^5 […] (CFUs) per ml. Plate counts were performed on 1 mL of all inocula.
(§4) Each plate and unadulterated agar growth control was inoculated with the inocula prepared above using a Steer's Replicator method. Plates were then incubated at 32° C. Observations for growth were made at 48 hours.
(§5) The results of this test are reported below in Table 1 as compared to the known antifungal agents, miconazole nitrate and terconazole.

[3] = test system: Trichophyton mentagrophytes; assay: In vitro antimicrobial activity, minimal inhibitory concentration (agar dilution), Trichophyton mentagrophytes; type: cell-based, Trichophyton mentagrophytes ATC 22839; details: Mueller Hinton agar, 32° C., 48 hours, complete inhibition of growth
Experimental: as §2, §3, §4, §5

[4] = In vivo antisecretory activity, gastric secretion in pylorus ligated rats (acid output); parameters: species or system male Charles River Sprague Dawley derived rats; details: Rattus norvegicus, 4 h; 20 mpk, po; four hours after ligation; read-out: Pylorous Ligated Rats, effect on acid output compared to control
[5] = In vivo anticonvulsant activity, Antimetrazol (pentylenetetrazol-induced convulsions); parameters: species or system Male CD1 mice; key: +: Active; ±: Active, but weak; -: Inactive at this dose; details: p.o., 125 mg/kg pentylenetetrazol s.c. challenge; for Anticonvulsant profile, Antimetrazol (100): 100 mg/kg; for Anticonvulsant profile, Antimetrazol (10): 10 mg/kg
Experimental: Male CD1 mice, fasted at least 16 hours, were divided into groups of 10 and test compounds or vehicle were administered orally by gavage. The vehicle used was 0.5% aqueous methylcellulose solution containing 0.4% (v/v) of Tween 80. One hour later (or at time of suspected peak activity), the mice were challenged with 125 mg/kg of pentylenetetrazol, administered subcutaneously. Pentylenetetrazol was dissolved in 0.9% sodium chloride solution, and the dosage volume for administration of test compounds or the convulsant challenge was 10 ml/kg. Animals were housed individually for observation of convulsions for a period of 30 minutes.
Pentylenetetrazol-induced convulsions in vehicle-treated mice consist of mixed-clonic/tonic seizures. Tonic hindlimb extension and death are terminal consequences. Test compounds that block the hindlimb tonic extensor component of the convulsions in at least 50% of treated mice were considered active. ED50 values of active compounds may be calculated by the method of probits (Finney, 1971).

[6] = In vivo anticonvulsant activity, Antielectroshock; parameters: species or system Male CD1 mice; key: +: Active; ±: Active, but weak; -: Inactive at this dose; details: p.o.; for Anticonvulsant profile, Antielectroshock (100): 100 mg/kg; for Anticonvulsant profile, Antielectroshock (10): 10 mg/kg
General CNS Behavior = type: in vivo, Male CD1 mice; details: 100 mg/kg, p.o.
[7] = Mueller Hinton agar, 32° C., 48 hours, complete inhibition of growth
[8] = histamine stimulated, 14C-aminopyrine accumulation, 37° C., 20 minutes
[9] = dibutyryl cAMP stimulated, 14C-aminopyrine accumulation, 37° C., 20 minutes

| Structure (SMILES) | IC50 [1] [nM] | IC50 [2] [nM] | MIC (Candida albicans; [7]) [µg/mL] | MIC [3] [µg/mL] | IC50 [1, 8] [nM] | IC50 [2, 9] [nM] | change in vivo at 20 mg/kg [4] [%] | Anticonvulsant profile, Antimetrazol (100) [5] | Anticonvulsant profile, Antielectroshock (100) [6] | Anticonvulsant profile, Antimetrazol (10) [5] | Anticonvulsant profile, Antielectroshock (10) [6] | General CNS Behavior (General CNS Behavior) | MIC (Candida albicans; 48 h) [µg/mL] |
| --- | --- | --- | --- | --- | --- | --- | --- | --- | --- | --- | --- | --- | --- |
| CN/C(=N/CCSCc1nc[nH]c1C)NC#N [Cimetidine, cimetidine, reference compound] | 820 | > 100000 |  |  |  |  |  |  |  |  |  |  |  |
| C(=C\c1ccc(OCCCCn2ccnc2)cc1)/c1ccccc1 [Example 1, hydrochloride] |  |  | > 50 | 50 | 450 | 450 | -32 | - | - |  |  |  |  |
| C(=C\c1ccc(OCCCn2ccnc2)cc1)/c1ccccc1.Cl [Example 2, (E)-4-(1H-Imidazol-1-yl)propoxystilbene hydrochloride] |  |  | > 50 | 10 | 160 | 270 | -4 | + | + | - | - |  |  |
| CCCN(CCC)CCCOc1ccc(/C=C/c2cccc(OC)c2)cc1 [Example 3, (E)-3'-Methoxy-4-dipropylamino-propoxystilbene hydrochloride] |  |  | 50 | 50 | 100 | 110 | -92 | + | - | - |  |  |  |
| Clc1cccc(/C=C/c2ccc(OCCCCn3ccnc3)cc2)c1 [Example 5, hydrochloride] |  |  | > 50 | > 50 | 180 | 100 | -12 |  |  |  |  |  |  |
| Cl.c1ccc(-c2ccc(OCCCCn3ccnc3)cc2)cc1 [Example 6, 1-(1H-Imidazol-1-ylbutoxy)-4-phenylbenzene hydrochloride] |  |  | 1 | 1 | 170 | 160 | -24 | ± | ± | - | - | Wk CNS Depr |  |
| CCCN(CCC)CCCCOc1ccc(-c2ccccc2)cc1.Cl [Example 7, 1-(Dipropylaminobutoxy)-4-phenylbenzene hydrochloride] |  |  | 50 | 1 | 120 | 260 | -45 | ± | ± | - | - |  |  |
| Cl.c1ccc(-c2ccc(OCCCn3ccnc3)cc2)cc1 [Example 8, 1-(1H-Imidazol-1-ylpropoxy)-4-phenylbenzene hydrochloride] |  |  | 1 | 1 | 230 | 320 | -33 | ± | ± | - | - | Wk CNS Depr |  |
| Cl.c1ccc(-c2ccc(OCCCCCn3ccnc3)cc2)cc1 [Example 9, 1-(1H-Imidazol-1-ylpentoxy)-4-phenylbenzene hydrochloride] |  |  | 50 | 10 | 90 | 110 | -54 |  |  |  | - |  |  |
| c1ccc(-c2ccc(OCCCCCn3cncn3)cc2)cc1 [Example 10, hydrochloride] |  |  | > 50 | 10 | < 10000 | < 10000 |  |  |  |  |  |  |  |
| Cl.O=C(c1ccc(Cl)cc1)c1ccc(OCCCn2ccnc2)cc1 [Example 11, 4'-Chloro-4-(1H-imidazol-1-ylpropoxy) benzophenone hydrochloride] |  |  | > 50 | 1 | 280 | 280 | -35 | - | - |  |  |  |  |
| c1ccc(Cc2ccc(OCCCn3ccnc3)cc2)cc1 [Example 12, 1-[4-(1H-Imidazol-1-ylpropoxyphenyl)-1-phenylmethane hydrochloride] |  |  | 50 | 10 | 140 | 300 | -51 | + | + | - | - | Mod CNS Depr |  |
| Clc1ccc(COC(Cn2ccnc2)c2ccc(Cl)cc2Cl)c(Cl)c1 (stereo not drawn) [Miconazole Nitrate, miconazole nitrate, reference compound] |  |  |  | 5 |  |  |  |  |  |  |  |  | 1 |
| CNC(=C[N+](=O)[O-])NCCSCc1ccc(CN(C)C)o1 [Ranitidine, ranitidine, reference compound] |  |  |  |  | 40 | > 100000 |  |  |  |  |  |  |  |
| CC(C)N1CCN(c2ccc(OCC3COC(Cn4cncn4)(c4ccc(Cl)cc4Cl)O3)cc2)CC1 (stereo not drawn) [Terconazole, terconazole, reference compound] |  |  | 0.1 (≈ 0.188 µM) | 50 (≈ 93.9 µM) |  |  |  |  |  |  |  |  |  |
